Test results taken from patent publication US20190038597A1, “PREVENTION OF VASCULAR AND CARDIAC FIBROSIS VIA IRE1ALPHA INHIBITION” (McMaster University, priority 2017, published 2019).

Columns and labels:
[1] = tested on: primary rat renal fibroblasts; experiment: Picro-Sirius Red assay of collagen production in renal fibroblasts; assay type: cell-based; details: AA2P, TGF-β1, 72 h co-treatment, FIG. 3
Description: Rat renal fibroblasts were treated with L-ascorbic acid-2-phosphate, TGF-β1 and 4μ8c for 72 h. Collagen production was measured by a Picro-Sirius Red assay. **, p<0.01.
VSMCs were isolated from the aortas of 5-week old WKY rats using the explant method^29. The thoracic aorta was removed from the animal and placed in ice-cold 5× Antibiotics-Antimycotics solution (ThermoFisher). The adventitia was gently removed and the aorta was cut longitudinally. The endothelial layer was removed by gentle scraping with forceps. The aorta was cut into 3 mm^2 squares and placed on a 6 well plate in DMEM/F12 medium containing 10% fetal bovine serum (FBS). Explants were incubated undisturbed in a 5% CO2 incubator at 37° C. for 1 week and then passaged. Sprague-Dawley renal fibroblasts were purchased (Cell Biologics) and cultured in low glucose DMEM/F12 medium containing 10% FBS, streptomycin (100 μgimp, and penicillin (100 U/ml, Invitrogen, Burlington, ON). Cells between passages 5 and 10 were used for experiments. Cells were cultured in medium containing 1% FBS overnight before treatment.
Collagen synthesis was measured using a Picro-Sirius Red-based assay as previously described^30. Briefly, cells cultured on a 96 well plate were fixed in methanol for 10 minutes at −20° C. […] Absorbance at 540 nm was measured using a Spectramax Plus Microplate Reader (Molecular Devices). […]

[2] = tested on: GRP78, GRP94 and PDI; experiment: Western blot of ER chaperone / ER stress marker expression in VSMCs; assay type: cell-based, rat
Description: VSMCs were treated with tunicamycin (1 μg/ml) and either 4μ8c (30 μM) or STF-083010 (60 μM) for 6 h or 24 h. (A) Agarose gel for assessment of XBP1 splicing after 6 h of treatment with tunicamycin and densitometric quantification. (B) Western blot for assessment of ER chaperone expression after 24 h tunicamycin treatment with or without inhibition of IRE1α by 4μ8c. Data is presented as mean±SEM. *, p<0.05 vs. Vehicle; #, p<0.05 vs. Tm.
VSMCs were cultured in DMEM/F12 containing 1% FBS. Confluent cells were treated with L-ascorbic acid-2-phosphate (100 μg/ml) and either TGF-β1 (5 ng/ml) or Ang II (1 μM). (A) Agarose gel for assessment of TGF-β1-induced XBP1 splicing in VSMCs after 24 h. (B) Picro-Sirius Red assay for measurement of collagen deposition induced by combined TGF-β1 and AA2P treatment after 72 h, and inhibition by 4μ8c and STF-083010. (C) Western blot for assessment of collagen chaperone expression after treatment of TGF-β1 and 4μ8c for 48 h. *, p<0.05. (D) Measurement of Ang II-induced collagen production and inhibition by 4μ8c and STF-083010 after 72 h.
VSMCs were isolated from the aortas of 5-week old WKY rats using the explant method^29. The thoracic aorta was removed from the animal and placed in ice-cold 5× Antibiotics-Antimycotics solution (ThermoFisher). The adventitia was gently removed and the aorta was cut longitudinally. The endothelial layer was removed by gentle scraping with forceps. The aorta was cut into 3 mm^2 squares and placed on a 6 well plate in DMEM/F12 medium containing 10% fetal bovine serum (FBS). Explants were incubated undisturbed in a 5% CO2 incubator at 37° C. for 1 week and then passaged. […]
Cells were lysed in 1× Laemmli buffer and protein content was quantified using the BioRad DC Protein Assay (BioRad, Mississauga, Canada). […]

## Cc1cc(=O)oc2c(C=O)c(O)ccc12 [4μ8c, 7-Hydroxy-4-methyl-2-oxo-2H-chromene-8-carbaldehyde]
[1]
  collagen levels in response to TGF-β1: reduced
[2]; 24 h tunicamycin treatment, FIG. 1B
  elevated expression levels of ER stress markers GRP78, GRP94 and PDI: reduced
[2]; TGF-β1 48 h, FIG. 2C
  TGF-β1-increased expression of collagen chaperones and ER stress markers GRP78, GRP94 and PDI: lowered
